This note sets out measurements from article PMC6743335 (Journal of the American Chemical Society, 2018).

The assay addresses T1, human ATR (adenosyltransferase) (Homo sapiens, UniProt Q96EY8).
T1 sequence (Q96EY8 33-250 limits assumed): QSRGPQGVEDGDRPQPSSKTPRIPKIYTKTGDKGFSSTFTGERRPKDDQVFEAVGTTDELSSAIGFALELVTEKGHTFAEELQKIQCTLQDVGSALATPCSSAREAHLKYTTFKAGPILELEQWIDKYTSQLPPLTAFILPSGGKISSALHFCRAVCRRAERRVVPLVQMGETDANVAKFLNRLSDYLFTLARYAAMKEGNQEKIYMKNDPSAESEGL
Kind of assay: binding, method in supplement. The conditions noted are these: ATP in the third site of the crystal with Mg.

Turning to `Nc1ncnc2c1ncn2[C@@H]1O[C@H](COP(=O)(O)OP(=O)(O)OP(=O)(O)O)[C@@H](O)[C@H]1O` [ATP], the Kd entry is reported as “Electron density for AdoCbl was observed in two active sites”.
